Patent publication US3949090A, “Methods and compositions for improving feed efficiency in ruminants using dithiooxamide” (SmithKline Corporation, priority 1974, dated 1976)

Experiments:
protein deposition = conditions: compared with acetate; Potter et al., Eskeland et al.; cited from earlier work
sheep = conditions: amino acid supplement; cited from earlier work
[1] = tested on: Microbial Deaminase (strained rumen fluid); assay: In vitro microbial deaminase inhibition (rumen fluid, alfalfa hay, grain mixture; 4 hours); type: cell-based; conditions: Table III, dithiooxamide 0 ppm, 240 min
Description: (§1) The in vitro fermentation system contained 75 ml. strained rumen fluid, 200 mg, alfalfa hay, 800 mg. of a crude protein grain mixture, 0.8 to 1.6 mM of each of 10 essential amino acids (threonine, valine, methionine, isoleucine, leucine, phelylalanine, tryptophan, lysine and arginine), and 0 to 50 ppm dithiooxamide. Flasks were incubated for 4 hours with effects upon amino acid deamination assessed as described for the previous system. Using standard chromatographic techniques, effects upon methanogenesis and upon the pattern of volatile fatty acid production were determined.
(§2) ^1 In vitro fermentation system contained 75 ml. strained rumen fluid
(§3) 200 mg. alfalfa hay, 800 mg. grain mixture (16% crude protein) and 1.6 mM
(§4) of each of ten essential amino acids. Flasks were incubated for four
(§5) 200 mg. alfalfa hay, 800 mg. grain mixture (16% crude protein) and 0.8 mM

[2] = tested on: methanogenesis (strained rumen fluid); assay: In vitro effects upon methanogenesis; type: cell-based; conditions: Table III, dithiooxamide 0 ppm
Description: as §1, §2, §3, §4, §5

[3] = tested on: volatile fatty acid production (strained rumen fluid); assay: In vitro volatile fatty acid production; type: cell-based; conditions: Table III, dithiooxamide 0 ppm; for Volatile Fatty Acids (molar distribution, %): Propionate: control 15; for Volatile Fatty Acids (molar distribution, %): Butyrate: control 21; for Volatile Fatty Acids (molar distribution, %): Acetate: control 64; for Volatile Fatty Acid Carbon: control 125
Description: as §1, §2, §3, §4, §5

[4] = tested on: gas production (strained rumen fluid); assay: In vitro gas production; type: cell-based; conditions: Table III, dithiooxamide 0 ppm, control 65
Description: as §1, §2, §5, §4

CCC(=O)O [propionate]
energy metabolites for protein deposition in sheep (in words) (protein deposition): better energy metabolites than acetate for protein deposition in sheep

CSCC[C@H](N)C(=O)O [Methionine]
quality of wool in sheep (in words) (sheep): particularly useful in increasing the quality of wool in sheep

O=S(=O)([O-])[O-].[Cu+2] [Copper Sulfate, reference compound]
MDI (%) ([1]; copper sulfate .067 ppm): 3% | MDI (%) ([1]; copper sulfate .333 ppm): 6% | Methane Inhibition (%) ([2]; copper sulfate .067 ppm): -5% | Methane Inhibition (%) ([2]; copper sulfate .333 ppm): -11% | Volatile Fatty Acids (molar distribution, %): Propionate ([3]; copper sulfate .067 ppm): 15% | Volatile Fatty Acids (molar distribution, %): Butyrate ([3]; copper sulfate .067 ppm): 21% | Volatile Fatty Acids (molar distribution, %): Acetate ([3]; copper sulfate .067 ppm): 64% | Volatile Fatty Acid Carbon ([3]; copper sulfate .067 ppm): 123 μ moles/ml. | Volatile Fatty Acids (molar distribution, %): Propionate ([3]; copper sulfate .333 ppm): 15% | Volatile Fatty Acids (molar distribution, %): Butyrate ([3]; copper sulfate .333 ppm): 22% | Volatile Fatty Acids (molar distribution, %): Acetate ([3]; copper sulfate .333 ppm): 63% | Volatile Fatty Acid Carbon ([3]; copper sulfate .333 ppm): 121 μ moles/ml. | Gas Production ([4]; copper sulfate .067 ppm): 65 cc | Gas Production ([4]; copper sulfate .333 ppm): 64 cc

O=S(=O)([O-])[O-].[Co+2] [Cobalt Sulfate, reference compound]
MDI (%) ([1]; cobalt sulfate .013 ppm): 1% | MDI (%) ([1]; cobalt sulfate .067 ppm): 2% | Methane Inhibition (%) ([2]; cobalt sulfate .013 ppm): 1% | Methane Inhibition (%) ([2]; cobalt sulfate .067 ppm): -5% | Volatile Fatty Acids (molar distribution, %): Propionate ([3]; cobalt sulfate .013 ppm): 15% | Volatile Fatty Acids (molar distribution, %): Butyrate ([3]; cobalt sulfate .013 ppm): 22% | Volatile Fatty Acids (molar distribution, %): Acetate ([3]; cobalt sulfate .013 ppm): 63% | Volatile Fatty Acid Carbon ([3]; cobalt sulfate .013 ppm): 120 μ moles/ml. | Volatile Fatty Acids (molar distribution, %): Propionate ([3]; cobalt sulfate .067 ppm): 15% | Volatile Fatty Acids (molar distribution, %): Butyrate ([3]; cobalt sulfate .067 ppm): 22% | Volatile Fatty Acids (molar distribution, %): Acetate ([3]; cobalt sulfate .067 ppm): 63% | Volatile Fatty Acid Carbon ([3]; cobalt sulfate .067 ppm): 127 μ moles/ml. | Gas Production ([4]; cobalt sulfate .013 ppm): 65 cc | Gas Production ([4]; cobalt sulfate .067 ppm): 65 cc
